The record followed here is patent US20250034167A1, “HETEROCYCLIC COMPOUNDS AND METHODS OF USE” (AMGEN INC., priority 2021, published 2025).

Assay [1] concerns Phosphorylation of ERK1/2 in AsPC-1 cells. Put plainly: Phospho-ERK1/2 MSD Assay. The class given is cell-based. To be noted: Homo sapiens, ASPC1, 2 h, read-out: 2 h p-ERK (AsPC-1 cells), IC50, AsPC-1 cells, 2 h compound treatment. On the procedure:
Sixteen hours prior to compound treatment, AsPC-1 cells were seeded in 96-well cell culture plates at a density of 25,000 cells/well and incubated at 37° C., 5% CO2. A compound dose-response titration was diluted in growth media, added to appropriate wells of a cell culture plate, and then incubated at 37° C., 5% CO2 for 2 hours.

In assay [2] the target is His-tagged KRAS G12D protein (Homo sapiens, UniProt P01116, G12D). Kind of assay: biochemical.
Sequence of His-tagged KRAS G12D protein (P01116 1-188 isoform P01116-2 G12D): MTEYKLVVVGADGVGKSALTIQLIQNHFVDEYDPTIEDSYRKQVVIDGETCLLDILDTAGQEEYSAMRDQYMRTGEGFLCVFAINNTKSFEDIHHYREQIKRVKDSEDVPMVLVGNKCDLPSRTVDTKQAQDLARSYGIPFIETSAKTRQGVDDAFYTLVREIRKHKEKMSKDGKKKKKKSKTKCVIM
Method: The plate was incubated for 30 minutes at room temperature. Biotinylated KRPep-2d substrate (Amgen) was diluted to nM in Assay Buffer and 2 μL was added to all wells and incubated for 1 hour at room temperature. Detection Reagent (0.4 nM LANCE Eu-W1024 Anti-6×His (Perkin Elmer AD0401), 5 nM streptavidin-d2 (Cisbio 610SADLA)) was prepared in Assay Buffer, then 4 µL was added to the plate and incubated for 1 hour at room temperature.

Broadly, the IC50 is the concentration at which inhibition is half-maximal. For `CCc1c(F)ccc2cc(O)cc(-c3ncc4c(N5CC6CCC(C5)C6(C)O)nc(OC[C@@]56CCCN5C[C@H](F)C6)nc4c3F)c12` (stereo partly drawn) [Example 98, 3-(7-(8-Ethyl-7-fluoro-3-hydroxynaphthalen-1-yl)-8-fluoro-2-(((2R,7aS)-2-fluorotetrahydro-1H-pyrrolizin-7a(5H)-yl)methoxy)pyrido[4,3-d]pyrimidin-4-yl)-8-methyl-3-azabicyclo[3.2.1]octan-8-ol], the values for the IC50 in assay [1] and in assay [2] were 2840 nM and 80 nM, respectively.
As for `CCc1c(F)ccc2cc(O)cc(-c3ncc4c(N5CCC6CC6(O)C5)nc(OC[C@@]56CCCN5C[C@H](F)C6)nc4c3F)c12` (stereo partly drawn) [Example 99, 3-(7-(8-Ethyl-7-fluoro-3-hydroxynaphthalen-1-yl)-8-fluoro-2-(((2R,7aS)-2-fluorotetrahydro-1H-pyrrolizin-7a(5H)-yl)methoxy)pyrido[4,3-d]pyrimidin-4-yl)-3-azabicyclo[4.1.0]heptan-1-ol], the IC50 was found to be 794 nM in assay [1] and 11 nM in assay [2].
As for `CCc1c(F)ccc2cc(O)cc(-c3ncc4c(N5C[C@H](O)C[C@@H](O)C5)nc(OC[C@@]56CCCN5C[C@H](F)C6)nc4c3F)c12` [Example 102, (3R,5R)-1-(7-(8-Ethyl-7-fluoro-3-hydroxynaphthalen-1-yl)-8-fluoro-2-(((2R,7aS)-2-fluorotetrahydro-1H-pyrrolizin-7a(5H)-yl)methoxy)pyrido[4,3-d]pyrimidin-4-yl)piperidine-3,5-diol], the IC50 in assay [1] stood at 1900 nM; in assay [2], 2 nM.
Take `CCc1c(F)ccc2cc(O)cc(-c3ncc4c(N5CC6CCC(C6)C5)nc(OC[C@@]56CCCN5C[C@H](F)C6)nc4c3F)c12` [Example 105, 4-(4-(3-Azabicyclo[3.2.1]octan-3-yl)-8-fluoro-2-(((2R,7aS)-2-fluorotetrahydro-1H-pyrrolizin-7a(5H)-yl)methoxy)pyrido[4,3-d]pyrimidin-7-yl)-5-ethyl-6-fluoronaphthalen-2-ol]: the values for the IC50 in assay [1] and in assay [2] were 939 nM and 9 nM, respectively.
`CCc1c(F)ccc2cc(O)cc(-c3ncc4c(N5C[C@H](O)[C@@H](O)C5)nc(OC[C@@]56CCCN5C[C@H](F)C6)nc4c3F)c12` [Example 117, (3S,4S)-1-(7-(8-Ethyl-7-fluoro-3-hydroxynaphthalen-1-yl)-8-fluoro-2-(((2R,7aS)-2-fluorotetrahydro-1H-pyrrolizin-7a(5H)-yl)methoxy)pyrido[4,3-d]pyrimidin-4-yl)pyrrolidine-3,4-diol]: the IC50 in assay [1] is above 10000 nM; in assay [2], 9 nM.
For `CCc1c(F)ccc2cc(O)cc(-c3ncc4c(N5CC(O)CC(F)(F)C5)nc(OC[C@@]56CCCN5C[C@H](F)C6)nc4c3F)c12` (stereo partly drawn) [Example 118, 1-(7-(8-Ethyl-7-fluoro-3-hydroxynaphthalen-1-yl)-8-fluoro-2-(((2R,7aS)-2-fluorotetrahydro-1H-pyrrolizin-7a(5H)-yl)methoxy)pyrido[4,3-d]pyrimidin-4-yl)-5,5-difluoropiperidin-3-ol], the figures for the IC50 in assay [1] and in assay [2] were 105 nM and 3 nM, respectively.
The corresponding values for `CCc1c(F)ccc2cc(O)cc(-c3ncc4c(N5CCC(O)C(F)(F)CC5)nc(OC[C@@]56CCCN5C[C@H](F)C6)nc4c3F)c12` (stereo partly drawn) [Example 120, 1-(7-(8-Ethyl-7-fluoro-3-hydroxynaphthalen-1-yl)-8-fluoro-2-(((2R,7aS)-2-fluorotetrahydro-1H-pyrrolizin-7a(5H)-yl)methoxy)pyrido[4,3-d]pyrimidin-4-yl)-5,5-difluoroazepan-4-ol] are 222 nM and 4 nM.
Taken in the same sequence, the figures for `CCc1c(F)ccc2cc(O)cc(-c3ncc4c(N5CCC[C@@H](C(=O)OC)C5)nc(OC[C@@]56CCCN5C[C@H](F)C6)nc4c3F)c12` [Example 126, Methyl (R)-1-(7-(8-ethyl-7-fluoro-3-hydroxynaphthalen-1-yl)-8-fluoro-2-(((2R,7aS)-2-fluorotetrahydro-1H-pyrrolizin-7a(5H)-yl)methoxy)pyrido[4,3-d]pyrimidin-4-yl)piperidine-3-carboxylate] were 3340 nM and 37 nM.
Turning to `CCc1c(F)ccc2cc(O)cc(-c3ncc4c(N5CCCC[C@@H](O)C5)nc(OC[C@@]56CCCN5C[C@H](F)C6)nc4c3F)c12` [Example 129, (R)-1-(7-(8-Ethyl-7-fluoro-3-hydroxynaphthalen-1-yl)-8-fluoro-2-(((2R,7aS)-2-fluorotetrahydro-1H-pyrrolizin-7a(5H)-yl)methoxy)pyrido[4,3-d]pyrimidin-4-yl)azepan-3-ol], the IC50 in assay [1] came out at 64 nM; in assay [2], 1 nM.
`CCc1c(F)ccc2cc(O)cc(-c3ncc4c(N5CCCC[C@@H](NC(=O)C(F)F)C5)nc(OC[C@@]56CCCN5C[C@H](F)C6)nc4c3F)c12` [Example 132, N-((R)-1-(7-(8-Ethyl-7-fluoro-3-hydroxynaphthalen-1-yl)-8-fluoro-2-(((2R,7aS)-2-fluorotetrahydro-1H-pyrrolizin-7a(5H)-yl)methoxy)pyrido[4,3-d]pyrimidin-4-yl)azepan-3-yl)-2,2-difluoroacetamide]: the IC50 in assay [1] came out at 119 nM; in assay [2], 1 nM.
Taken in the same sequence, the figures for `CCc1c(F)ccc2cc(O)cc(-c3ncc4c(N5CCCC[C@@H](NC(C)=O)C5)nc(OC[C@@]56CCCN5C[C@H](F)C6)nc4c3F)c12` [Example 133, N-((R)-1-(7-(8-Ethyl-7-fluoro-3-hydroxynaphthalen-1-yl)-8-fluoro-2-(((2R,7aS)-2-fluorotetrahydro-1H-pyrrolizin-7a(5H)-yl)methoxy)pyrido[4,3-d]pyrimidin-4-yl)azepan-3-yl)acetamide] were 661 nM and 2 nM.
Turning to `CCc1c(F)ccc2cc(O)cc(-c3ncc4c(N5CCC=CC(O)C5)nc(OC[C@@]56CCCN5C[C@H](F)C6)nc4c3F)c12` (stereo partly drawn) [Example 135, 1-(7-(8-Ethyl-7-fluoro-3-hydroxynaphthalen-1-yl)-8-fluoro-2-(((2R,7aS)-2-fluorotetrahydro-1H-pyrrolizin-7a(5H)-yl)methoxy)pyrido[4,3-d]pyrimidin-4-yl)-2,3,6,7-tetrahydro-1H-azepin-3-ol], the results for the IC50 in assay [1] and in assay [2] were 81 nM and 1 nM, respectively.
For the compound `CCc1c(F)ccc2cc(O)cc(-c3ncc4c(N5CCC[C@@H](C(=O)O)C5)nc(OC[C@@]56CCCN5C[C@H](F)C6)nc4c3F)c12` [Example 138, (R)-1-(7-(8-Ethyl-7-fluoro-3-hydroxynaphthalen-1-yl)-8-fluoro-2-(((2R,7aS)-2-fluorotetrahydro-1H-pyrrolizin-7a(5H)-yl)methoxy)pyrido[4,3-d]pyrimidin-4-yl)piperidine-3-carboxylic acid], the IC50 was above 10000 nM in assay [1] and 16 nM in assay [2].
On to `CCc1c(F)ccc2cc(O)cc(-c3ncc4c(N5CCC=CCC5)nc(OC[C@@]56CCCN5C[C@H](F)C6)nc4c3F)c12` [Example 139, 5-Ethyl-6-fluoro-4-(8-fluoro-2-(((2R,7aS)-2-fluorotetrahydro-1H-pyrrolizin-7a(5H)-yl)methoxy)-4-(2,3,6,7-tetrahydro-1H-azepin-1-yl)pyrido[4,3-d]pyrimidin-7-yl)naphthalen-2-ol], for which the IC50 in assay [1] amounted to 116 nM; in assay [2] it was 5 nM.
